Results: patent publication US10294202B2, “Pyrrolidinones as herbicides” (FMC Corporation, priority 2013, dated 2019)

How the values were obtained:
[1] = tested on: giant foxtail; experiment: Test A pre-/postemergence herbicide test; assay type: in vivo, Setaria faberii; conditions: for Foxtail, Giant plant response rating: visual rating on 0 to 100 scale (0 no effect, 100 complete control)
Outline: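 Seeds sown in loam soil/sand blend received a preemergence directed soil spray of test chemical in non-phytotoxic solvent with surfactant; postemergence plants (2–10 cm, one- to two-leaf stage) were sprayed with the same formulation. After about 10 days in greenhouse, injury was rated visually versus untreated controls, 0 (no effect) to 100 (complete control).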

[2] = tested on: rice; experiment: Test C flooded paddy test; assay type: in vivo, Oryza sativa; conditions: Flood
Outline: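 Plants grown to the 2-leaf stage; pots flooded to 3 cm above soil and compound applied directly into the paddy water, depth kept throughout. Greenhouse 13 to 15 days, then visual rating vs untreated controls on 0–100 scale (0 no effect, 100 complete control); dash means no result.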

[3] = tested on: velvetleaf; experiment: Test C pre-/postemergence herbicide test; assay type: in vivo, Abutilon theophrasti; conditions: Preemergence; for Plant response rating (scale of 0 to 100), Velvetleaf: 250 g ai/ha
Text: (§1) Seeds of plant species selected from blackgrass (Alopecurus myosuroides), ryegrass, Italian (Italian ryegrass, Lolium multiflorum), wheat (winter wheat, Triticum aestivum), galium (catchweed bedstraw, Galium aparine), corn (Zea mays), crabgrass, large (large crabgrass, Digitaria sanguinalis), foxtail, giant (giant foxtail, Setaria faberii), johnsongrass (Sorghum halepense), lambsquarters (Chenopodium album), morningglory (Ipomoea coccinea), nutsedge, yellow (yellow nutsedge, Cyperus esculentus), pigweed (Amaranthus retroflexus), ragweed (common ragweed, Ambrosia elatior), soybean (Glycine max), barnyardgrass (Echinochloa crus-galli), oilseed rape (Brassica napus), waterhemp (common waterhemp, Amaranthus rudis), kochia (Kochia scoparia), oat, wild (wild oat, Avena fatua), surinam grass (Brachiaria decumbens), foxtail, green (green foxtail, Setaria viridis), goosegrass (Eleusine indica), bromegrass, downy (downy bromegrass, Bromus tectorum), nightshade (eastern black nightshade, Solanum ptycanthum), cocklebur (common cocklebur, Xanthium strumarium), cupgrass, woolly (woolly cupgrass, Eriochloa villosa), bermudagrass (Cynodon dactylon), sunflower, (common oilseed sunflower, Helianthus annuus), Russian thistle (Salsola kali) and velvetleaf (Abutilon theophrasti) were planted into a blend of loam soil and sand and treated preemergence with test chemicals formulated in a non-phytotoxic solvent mixture which included a surfactant. At the same time, plants selected from these crop and weed species and also barley (winter barley, Hordeum vulgare), […]), chickweed (common chickweed, Stellaria media), deadnettle (henbit deadnettle, Lamium amplexicaule), and canarygrass (littleseed canarygrass, Phalaris minor) were planted in pots containing Redi-Earth® planting medium (Scotts Company, 14111 Scottslawn Road, Marysville, Ohio 43041) comprising spaghnum peat moss, vermiculite, wetting agent and starter nutrients and treated with postemergence applications of test chemicals formulated in the same manner. Plants ranged in height from 2 to 18 cm (1- to 4-leaf stage) for postemergence treatments. Treated plants and controls were maintained in a greenhouse for 13 to 15 days, after which time all species were compared to controls and visually evaluated. Plant response ratings, summarized in Table C, are based on a scale of 0 to 100 where 0 is no effect and 100 is complete control. A dash (-) response means no test result.

[4] = tested on: ryegrass, Italian; experiment: Test C pre-/postemergence herbicide test; assay type: in vivo, Lolium multiflorum; conditions: Preemergence; for Plant response rating (scale of 0 to 100), Ryegrass, Italian: 250 g ai/ha
Text: as §1

[5] = tested on: ragweed; experiment: Test C pre-/postemergence herbicide test; assay type: in vivo, Ambrosia elatior; conditions: Preemergence; for Plant response rating (scale of 0 to 100), Ragweed: 250 g ai/ha
Outline: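 Visual rating, 0 (no effect) to 100 (complete control), versus untreated controls after 13 to 15 days in the greenhouse. Pre: seeds in loam/sand, sprayed at planting. Post: 1- to 4-leaf plants (2 to 18 cm) in peat-based mix. Compounds in non-phytotoxic solvent plus surfactant.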

[6] = Postemergence, 125 g ai/ha, 0 to 100 scale, 0 no effect, 100 complete control
[7] = Postemergence, 500 g ai/ha, 0 to 100 scale (0 no effect, 100 complete control)
[8] = preemergence, 500 g ai/ha, 0 to 100 scale
[9] = 31 g ai/ha, scale of 0 to 100 where 0 is no effect and 100 is complete control, 13 to 15 days
[10] = 62 g ai/ha, scale of 0 to 100 where 0 is no effect and 100 is complete control, 13 to 15 days
[11] = 125 g ai/ha, scale of 0 to 100 where 0 is no effect and 100 is complete control, 13 to 15 days
[12] = Postemergence, 125 g ai/ha, 0 to 100 scale, 0 is no effect, 100 is complete control
[13] = preemergence, 500 g ai/ha, 0 to 100 scale, 0 is no effect and 100 is complete control
[14] = 31 g ai/ha, scale 0 to 100, 0 is no effect and 100 is complete control
[15] = 62 g ai/ha, scale 0 to 100 (0 no effect, 100 complete control)
[16] = 125 g ai/ha, scale 0 to 100 (0 no effect, 100 complete control)
[17] = Preemergence, 125 g ai/ha, 0 to 100 scale where 0 is no effect and 100 is complete control
[18] = 250 g ai/ha, scale of 0 to 100 where 0 is no effect and 100 is complete control, 13 to 15 days

SMILES: O=C1NCC(c2cccc(C(F)(F)F)c2)C1C(=O)Nc1ccccc1F (racemic) [Compound 3]
- Plant response rating, Foxtail, Giant [1, 6]: 60
- Plant response rating, Foxtail, Giant [1, 7]: 80
- Foxtail, Giant plant response rating ([1]; Preemergence, 125 g ai/ha): 90
- Plant response rating, Foxtail, Giant [1, 8]: 90
- Plant response rating, Rice [2, 9]: 0
- Plant response rating, Rice [2, 10]: 0
- Plant response rating, Rice [2, 11]: 0
- Plant response rating, Rice ([2]; 250 g ai/ha, scale 0 to 100): 0

SMILES: O=C1NCC(c2ccc(F)c(F)c2)C1C(=O)Nc1cccc(F)c1 (racemic) [Compound 12]
- Plant response rating, Foxtail, Giant [1, 6]: 60
- Plant response rating, Foxtail, Giant [1, 7]: 80
- Foxtail, Giant plant response rating ([1]; Preemergence, 125 g ai/ha): 70
- Plant response rating, Foxtail, Giant [1, 8]: 90
- Plant response rating, Rice [2, 9]: 0
- Plant response rating, Rice [2, 10]: 0
- Plant response rating, Rice [2, 11]: 0
- Plant response rating, Rice ([2]; 250 g ai/ha, scale 0 to 100): 0

SMILES: O=C1NCC(c2cccc(C(F)(F)F)c2)C1C(=O)Nc1ccccc1Cl (racemic) [Compound 189]
- Plant response rating, Foxtail, Giant ([1]; 125 g ai/ha, visual rating, 0 to 100 scale, 0 no effect, 100 complete control, approximately 10 days, preemergence): 90
- Plant response rating, Foxtail, Giant [1, 12]: 70
- Foxtail, Giant plant response rating (0 to 100 scale, 0 is no effect, 100 is complete control) ([1]; Postemergence, 500 g ai/ha): 90
- Plant response rating, Foxtail, Giant [1, 13]: 90
- Velvetleaf plant response rating [3, 14]: 0
- Velvetleaf plant response rating [3, 15]: 0
- Plant response rating, Velvetleaf [3, 16]: 0
- Plant response rating, Velvetleaf ([3]; 16 g ai/ha, scale 0 to 100): 0
- Plant response rating, Rice [2, 11]: 0
- Plant response rating, Rice ([2]; 250 g ai/ha, scale 0 to 100): 0
- Plant response rating, Rice ([2]; 500 g ai/ha, scale 0 to 100): 0
- Plant response rating, Rice ([2]; 1000 g ai/ha, scale 0 to 100): 0
- Ryegrass, Italian plant response rating [4, 14]: 0
- Ryegrass, Italian plant response rating [4, 15]: 30
- Plant response rating, Ryegrass, Italian [4, 16]: 45
- Plant response rating, Ryegrass, Italian ([4]; 16 g ai/ha, scale 0 to 100): 0
- Ragweed plant response rating [5, 14]: 0
- Ragweed plant response rating [5, 15]: 0
- Plant response rating, Ragweed [5, 16]: 0
- Plant response rating, Ragweed ([5]; 16 g ai/ha, scale 0 to 100): 0

SMILES: O=C1NCC(c2ccc(C(F)(F)F)c(F)c2)C1C(=O)Nc1cccc(F)c1F (racemic) [Compound 247]
- Plant response rating, Foxtail, Giant [1, 12]: 50
- Plant response rating, Foxtail, Giant [1, 7]: 80
- Plant response rating, Foxtail, Giant [1, 17]: 80
- Plant response rating, Foxtail, Giant [1, 13]: 90
- Velvetleaf plant response rating [3, 14]: 0
- Velvetleaf plant response rating [3, 15]: 20
- Plant response rating, Velvetleaf [3, 16]: 30
- Plant response rating (scale of 0 to 100), Velvetleaf [3]: 25
- Plant response rating, Rice [2, 18]: 0
- Plant response rating, Rice ([2]; 500 g ai/ha, scale 0 to 100): 0
- Plant response rating, Rice ([2]; 1000 g ai/ha, scale 0 to 100): 0
- Plant response rating, Rice ([2]; 2000 g ai/ha, scale 0 to 100): 15
- Ryegrass, Italian plant response rating [4, 14]: 0
- Ryegrass, Italian plant response rating [4, 15]: 35
- Plant response rating, Ryegrass, Italian [4, 16]: 40
- Plant response rating (scale of 0 to 100), Ryegrass, Italian [4]: 50
- Ragweed plant response rating [5, 14]: 100
- Ragweed plant response rating [5, 15]: 85
- Plant response rating, Ragweed [5, 16]: 70
- Plant response rating (scale of 0 to 100), Ragweed [5]: 98

SMILES: O=C1NCC(c2ccc(C(F)(F)F)nc2)C1C(=O)Nc1cccc(F)c1F (racemic) [Compound 263]
- Plant response rating, Foxtail, Giant [1, 12]: 80
- Plant response rating, Foxtail, Giant [1, 7]: 90
- Plant response rating, Foxtail, Giant [1, 17]: 90
- Plant response rating, Foxtail, Giant [1, 13]: 100
- Velvetleaf plant response rating [3, 14]: 5
- Velvetleaf plant response rating [3, 15]: 5
- Plant response rating, Velvetleaf [3, 16]: 20
- Plant response rating (scale of 0 to 100), Velvetleaf [3]: 5
- Plant response rating, Rice [2, 9]: 0
- Plant response rating, Rice [2, 10]: 0
- Plant response rating, Rice [2, 11]: 0
- Plant response rating, Rice [2, 18]: 15
- Ryegrass, Italian plant response rating [4, 14]: 0
- Ryegrass, Italian plant response rating [4, 15]: 0
- Plant response rating, Ryegrass, Italian [4, 16]: 0
- Plant response rating (scale of 0 to 100), Ryegrass, Italian [4]: 35
- Ragweed plant response rating [5, 14]: 0
- Ragweed plant response rating [5, 15]: 90
- Plant response rating, Ragweed [5, 16]: 80
- Plant response rating (scale of 0 to 100), Ragweed [5]: 100
